Laboratory results as given in the NIST ThermoML archive (doi:10.1016/j.jct.2017.06.001).

Experiment: xn = mol fraction of the nth substance listed
Conditions: 318.15 K, 100 kPa, Liquid; for speed of sound: Frequency=5 MHz, Pulse-echo method; for mass density: Vibrating tube method

OCCCCCO [1,5-pentanediol] + O
Conditions | mass density [kg/m3] | speed of sound [m/s]
x1 = 0.005 | 989.65 | –
x1 = 0.0101 | 989.41 | –
x1 = 0.0196 | 989.31 | –
x1 = 0.0251 | 989.53 | –
x1 = 0.0304 | 989.77 | –
x1 = 0.05 | 990.21 | –
x1 = 0.0769 | 990.38 | –
x1 = 0.1002 | 990.62 | –
x1 = 0.1438 | 990.42 | –
x1 = 0.1836 | – | 1646.1
x1 = 0.1845 | 989.72 | –
x1 = 0.1877 | – | 1645.8
x1 = 0.1923 | – | 1645.5
x1 = 0.1928 | – | 1645.4
x1 = 0.1977 | – | 1645
x1 = 0.2017 | – | 1644.7
x1 = 0.2025 | – | 1644.6
x1 = 0.2049 | – | 1644.4
x1 = 0.2132 | – | 1643.6
x1 = 0.2224 | – | 1642.7
x1 = 0.2331 | – | 1641.6
x1 = 0.2482 | – | 1640
x1 = 0.2503 | 988.52 | –
x1 = 0.2698 | – | 1637.7
x1 = 0.2859 | – | 1635.9
x1 = 0.2955 | – | 1634.9
x1 = 0.3 | 987.37 | –
x1 = 0.312 | – | 1633
x1 = 0.3191 | – | 1632.2
x1 = 0.3343 | 986.64 | –
x1 = 0.3352 | – | 1630.3
x1 = 0.3499 | – | 1628.6
x1 = 0.3678 | – | 1626.5
x1 = 0.3857 | – | 1624.3
x1 = 0.4054 | – | 1621.9
x1 = 0.4171 | 985.02 | –
x1 = 0.4216 | – | 1619.8
x1 = 0.4392 | – | 1617.6
x1 = 0.4494 | – | 1616.3
x1 = 0.454 | 984.19 | –
x1 = 0.4703 | – | 1613.5
x1 = 0.4894 | – | 1611
x1 = 0.5003 | 983.3 | –
x1 = 0.5038 | – | 1609.1
x1 = 0.5212 | – | 1606.7
x1 = 0.5362 | 982.6 | –
x1 = 0.5442 | – | 1603.6
x1 = 0.565 | – | 1600.8
x1 = 0.5841 | – | 1598.3
x1 = 0.6039 | – | 1595.7
x1 = 0.6177 | 981.2 | –
x1 = 0.6258 | – | 1592.8
x1 = 0.6425 | – | 1590.6
x1 = 0.6478 | 980.7 | –
x1 = 0.6602 | – | 1588.3
x1 = 0.6789 | – | 1586
x1 = 0.6988 | – | 1583.5
x1 = 0.7025 | 979.9 | –
x1 = 0.7197 | – | 1581
x1 = 0.7436 | – | 1578.2
x1 = 0.7504 | 979.2 | –
x1 = 0.7664 | – | 1575.6
x1 = 0.7919 | – | 1572.7
x1 = 0.7927 | 978.5 | –
x1 = 0.8187 | – | 1569.8
x1 = 0.8416 | – | 1567.3
x1 = 0.8605 | 977.4 | –
x1 = 0.864 | – | 1564.8
x1 = 0.8864 | – | 1562.4
x1 = 0.9004 | 976.7 | –
x1 = 0.9086 | – | 1560
x1 = 0.926 | – | 1558
x1 = 0.9413 | – | 1556.3
x1 = 0.9573 | – | 1554.4
x1 = 0.971 | – | 1552.7
x1 = 0.9808 | – | 1551.5
x1 = 0.9903 | – | 1550.3
x1 = 0.9952 | – | 1549.7
x1 = 1 | – | 1549
